Experimental data reported in patent publication US20250346616A1 (DIZAL (JIANGSU) PHARMACEUTICAL CO., LTD., priority 2022, published 2025).

Tests used:
Recombinant ROCK1 = Recombinant ROCK1 (Homo sapiens (Human), UniProt Q13464); experiment: Lance Ultra Kinase Assay, ROCK1 inhibition; format: biochemical; details: ATP at Km, 30 min pre-incubation, 1 h reaction
pMLC2 = experiment: Cellular PD assay, pMLC2 in PASMC (western blot); format: cell-based; details: Human Pulmonary Artery Smooth Muscle Cells, 30 min incubation
Method: (§1) PASMC (Human Pulmonary Artery Smooth Muscle Cells) were grown in Smooth Muscle Cell Growth medium (Promocell #C-22162). The cells were resuspended at 3×10^5 cells per well in 6-well plate in Smooth Muscle Cell Growth medium (Promocell #C-22162) and incubated compound concentration range: (10000/1111/333/111/37/12.3/4.1/0.41/0 nM) for 30 min.
(§2) Cells were then placed on ice and washed with ice-cold PBS. Cell lysates were prepared with 2×SDS. Separate proteins by SDS-PAGE 2 hr, transfer of proteins form gel to membrane 90 min, Blocking the membrane with 5% milk 1 hr and incubation in primary antibody overnight at 4° C., Incubate the membrane in HRP-conjugated secondary antibody diluted in blocking buffer (1:2000) for 1 hour at room temperature. Detection using Amersham ECL plus western blotting detection system (LAS4000). The purified product was analysed by SDS PAGE and the amount of target protein calculated by gray scanning by Multi-Gauge V3.0 software.

Recombinant ROCK2 = Recombinant ROCK2 (Homo sapiens (Human), UniProt O75116); experiment: Lance Ultra Kinase Assay, ROCK2 inhibition; format: biochemical; details: ATP at Km, 30 min pre-incubation, 1 h reaction
Chain of Recombinant ROCK2 (O75116 whole entry): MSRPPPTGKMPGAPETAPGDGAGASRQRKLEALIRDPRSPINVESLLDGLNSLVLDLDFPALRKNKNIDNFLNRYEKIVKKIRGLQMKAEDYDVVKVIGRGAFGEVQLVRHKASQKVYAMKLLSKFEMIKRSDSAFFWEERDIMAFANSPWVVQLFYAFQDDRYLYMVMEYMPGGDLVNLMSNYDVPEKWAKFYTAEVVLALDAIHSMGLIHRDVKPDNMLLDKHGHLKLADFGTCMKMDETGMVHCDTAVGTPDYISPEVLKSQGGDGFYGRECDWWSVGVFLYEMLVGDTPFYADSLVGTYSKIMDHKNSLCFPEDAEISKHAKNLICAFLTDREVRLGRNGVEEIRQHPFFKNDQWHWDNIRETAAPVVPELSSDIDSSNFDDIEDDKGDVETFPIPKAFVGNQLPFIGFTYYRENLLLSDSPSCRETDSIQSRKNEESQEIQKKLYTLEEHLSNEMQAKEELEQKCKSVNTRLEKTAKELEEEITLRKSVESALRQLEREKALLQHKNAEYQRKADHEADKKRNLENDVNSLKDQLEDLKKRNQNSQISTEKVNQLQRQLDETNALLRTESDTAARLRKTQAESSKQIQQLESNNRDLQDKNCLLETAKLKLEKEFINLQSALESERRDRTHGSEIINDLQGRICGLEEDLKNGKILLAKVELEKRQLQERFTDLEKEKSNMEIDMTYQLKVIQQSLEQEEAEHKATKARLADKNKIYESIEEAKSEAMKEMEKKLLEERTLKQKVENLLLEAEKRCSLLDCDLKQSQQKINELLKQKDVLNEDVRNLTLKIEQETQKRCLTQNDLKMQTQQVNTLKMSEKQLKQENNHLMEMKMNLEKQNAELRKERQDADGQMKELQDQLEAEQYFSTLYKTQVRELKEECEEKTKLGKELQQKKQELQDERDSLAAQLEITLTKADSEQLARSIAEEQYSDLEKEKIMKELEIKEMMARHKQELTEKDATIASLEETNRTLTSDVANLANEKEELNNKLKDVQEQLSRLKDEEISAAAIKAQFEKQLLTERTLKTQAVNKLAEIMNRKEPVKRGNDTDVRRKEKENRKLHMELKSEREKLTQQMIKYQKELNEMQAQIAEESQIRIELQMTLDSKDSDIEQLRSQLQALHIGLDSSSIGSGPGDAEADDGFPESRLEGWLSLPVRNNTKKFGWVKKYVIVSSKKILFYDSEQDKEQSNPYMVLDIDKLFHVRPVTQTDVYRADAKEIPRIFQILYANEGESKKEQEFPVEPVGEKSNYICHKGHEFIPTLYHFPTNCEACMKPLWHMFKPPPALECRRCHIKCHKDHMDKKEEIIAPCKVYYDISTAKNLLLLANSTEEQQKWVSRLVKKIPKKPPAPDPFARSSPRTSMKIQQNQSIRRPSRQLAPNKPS
Method: The inhibition potency of compounds against these enzymes was assessed using Lance Ultra Kinase Assay. In brief, recombinant kinases were pre-incubated in the presence or absence of compound at room temperature for 30 minutes. The reaction was initiated by the addition of the ATP (Km) and substrate peptide which could be phosphorylated by kinases in the reaction. After 1 h incubation, the reaction was stopped by the addition of the detection reagent mix containing EDTA. The fluorescence was measured at 615 nm and 665 nm, respectively with excitation wavelength at 320 nm. The calculated signal ratio of 665 nm/615 nm is proportional to the kinase activity.

pMYPT1 = experiment: Cellular PD assay, pMYPT1 in PASMC (western blot); format: cell-based; details: Human Pulmonary Artery Smooth Muscle Cells, 30 min incubation
Method: as §1, §2

Chain of Recombinant ROCK1 (Q13464 whole entry): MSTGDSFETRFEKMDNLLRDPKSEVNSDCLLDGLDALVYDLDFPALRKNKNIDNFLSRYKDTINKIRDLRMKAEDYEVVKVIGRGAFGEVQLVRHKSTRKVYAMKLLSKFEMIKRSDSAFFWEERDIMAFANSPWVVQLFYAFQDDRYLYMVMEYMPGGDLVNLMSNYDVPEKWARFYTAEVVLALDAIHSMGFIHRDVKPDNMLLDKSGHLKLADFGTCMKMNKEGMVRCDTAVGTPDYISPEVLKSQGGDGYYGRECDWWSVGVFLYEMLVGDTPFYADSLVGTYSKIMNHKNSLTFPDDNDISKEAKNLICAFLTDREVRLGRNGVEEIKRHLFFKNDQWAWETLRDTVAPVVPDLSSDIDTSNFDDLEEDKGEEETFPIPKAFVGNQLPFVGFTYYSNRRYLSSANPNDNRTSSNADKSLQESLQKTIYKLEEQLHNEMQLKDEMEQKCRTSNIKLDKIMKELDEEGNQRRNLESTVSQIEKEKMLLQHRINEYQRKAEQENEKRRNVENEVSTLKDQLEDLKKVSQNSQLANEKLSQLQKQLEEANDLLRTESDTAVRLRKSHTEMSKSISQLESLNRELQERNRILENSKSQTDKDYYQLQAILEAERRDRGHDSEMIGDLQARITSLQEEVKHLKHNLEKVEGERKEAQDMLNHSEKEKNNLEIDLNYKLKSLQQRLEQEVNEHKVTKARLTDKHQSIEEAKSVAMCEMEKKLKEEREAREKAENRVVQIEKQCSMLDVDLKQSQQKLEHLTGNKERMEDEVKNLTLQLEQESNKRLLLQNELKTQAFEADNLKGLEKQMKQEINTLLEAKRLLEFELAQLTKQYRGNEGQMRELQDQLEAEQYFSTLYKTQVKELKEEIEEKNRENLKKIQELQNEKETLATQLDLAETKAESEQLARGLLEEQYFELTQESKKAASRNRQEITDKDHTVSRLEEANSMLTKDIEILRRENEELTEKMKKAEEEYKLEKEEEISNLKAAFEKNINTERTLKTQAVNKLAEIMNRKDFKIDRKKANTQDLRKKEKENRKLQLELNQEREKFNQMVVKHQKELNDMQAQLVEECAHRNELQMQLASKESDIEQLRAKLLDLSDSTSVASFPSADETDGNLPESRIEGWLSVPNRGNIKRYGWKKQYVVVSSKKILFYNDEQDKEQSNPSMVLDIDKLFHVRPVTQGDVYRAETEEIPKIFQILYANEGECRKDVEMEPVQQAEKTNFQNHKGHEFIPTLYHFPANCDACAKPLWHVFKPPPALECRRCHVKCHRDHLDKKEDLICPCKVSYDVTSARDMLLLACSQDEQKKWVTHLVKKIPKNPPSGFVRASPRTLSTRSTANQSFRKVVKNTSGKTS

| IC50 (Recombinant ROCK1) [nM] | IC50 (pMLC2; PASMC, 0.5 h) [nM] | IC50 (Recombinant ROCK2) [nM] | IC50 (pMYPT1; PASMC, 0.5 h) [nM] | IC50 (pMYPT1) [nM] | IC50 (pMLC2) [nM] | SMILES |
| --- | --- | --- | --- | --- | --- | --- |
| 34 | 13 |  |  |  |  | NC(C(=O)Nc1cccc2c(-c3cn[nH]c3)c[nH]c12)c1ccccc1 (racemic) [Example 7, N-(3-(1H-pyrazol-4-yl)-1H-indol-7-yl)-2-amino-2-phenylacetamide] |
| 1.1 | 13 | 0.88 | 1.5 |  |  | NCC(C(=O)Nc1cccc2c(-c3cn[nH]c3)c[nH]c12)C1CCCCC1 (racemic) [Example 22, 3-amino-2-cyclohexyl-N-[3-(1H-pyrazol-4-yl)-1H-indol-7-yl]propanamide] |
| 0.71 | 8 | 0.43 | 6.2 |  |  | CN1CCN(CC(C(=O)Nc2cccc3c(-c4cn[nH]c4)c[nH]c23)c2ccccc2)CC1 (racemic) [Example 37, N-(3-(1H-pyrazol-4-yl)-1H-indol-7-yl)-3-(4-methylpiperazin-1-yl)-2-phenylpropanamide] |
| 1.3 | 102 | 0.66 | 18 |  |  | CN1CCC(C(C(=O)Nc2cccc3c(-c4cn[nH]c4)c[nH]c23)c2ccccc2)CC1 (racemic) [Example 43, N-(3-(1H-pyrazol-4-yl)-1H-indol-7-yl)-2-(1-methylpiperidin-4-yl)-2-phenylacetamide] |
| 0.93 | 12 | 0.59 |  |  |  | NCC(Cc1ccccc1)C(=O)Nc1cccc2c(-c3cn[nH]c3)c[nH]c12 (racemic) [Example 52, 3-amino-2-benzyl-N-[3-(1H-pyrazol-4-yl)-1H-indol-7-yl]propanamide] |
| 0.19 | 3.5 | 0.13 | 4.3 |  |  | NCC(C(=O)Nc1cccc2c(-c3cn[nH]c3)c[nH]c12)C1CCCCC1 (single isomer, unassigned) [Example 23, N-(3-(1H-pyrazol-4-yl)-1H-indol-7-yl)-3-amino-2-cyclohexylpropanamide] |
| 0.53 | 29 | 0.27 | 11 |  |  | CN1CCC(C(C(=O)Nc2cccc3c(-c4cn[nH]c4)c[nH]c23)c2ccccc2)CC1 (single isomer, unassigned) [Example 45, N-(3-(1H-pyrazol-4-yl)-1H-indol-7-yl)-2-(1-methylpiperidin-4-yl)-2-phenylacetamide] |
| 1.3 |  | 0.47 |  |  |  | NCC(C(=O)Nc1cccc2c(-c3cn[nH]c3)c[nH]c12)c1ccc(C(N)=O)cc1 (single isomer, unassigned) [Example 112, 4-(1-((3-(1H-pyrazol-4-yl)-1H-indol-7-yl)amino)-3-amino-1-oxopropan-2-yl)benzamide] |
| 110 |  | 43 |  |  |  | NCC(C(=O)Nc1cccc2c(-c3cn[nH]c3)c[nH]c12)c1ccc(C(N)=O)cc1 (single isomer, unassigned) [Example 113, 4-(1-((3-(1H-pyrazol-4-yl)-1H-indol-7-yl)amino)-3-amino-1-oxopropan-2-yl)benzamide] |
| 22 |  | 12 |  |  |  | N[C@@H](C(=O)Nc1cccc2c(-c3cn[nH]c3)c[nH]c12)c1cccnc1 (single isomer, unassigned) [Example 131, N-(3-(1H-pyrazol-4-yl)-1H-indol-7-yl)-2-amino-2-(pyridin-3-yl) acetamide] |
| 0.76 |  | 0.39 |  |  |  | N[C@H](C(=O)Nc1cccc2c(-c3cn[nH]c3)c[nH]c12)c1cccnc1 (single isomer, unassigned) [Example 132, N-(3-(1H-pyrazol-4-yl)-1H-indol-7-yl)-2-amino-2-(pyridin-3-yl) acetamide] |
| 0.62 | 5.1 | 0.24 | 1.9 |  |  | COc1cccc(C(CN)NC(=O)c2cccc3c(-c4cn[nH]c4)c[nH]c23)c1 (single isomer, unassigned) [Example 136, N-(2-amino-1-(3-methoxyphenyl)ethyl)-3-(1H-pyrazol-4-yl)-1H-indole-7-carboxamide] |
| 149 |  | 65 |  |  |  | COc1cccc(C(CN2CCN(C)CC2)NC(=O)c2cccc3c(-c4cn[nH]c4)c[nH]c23)c1 (single isomer, unassigned) [Example 137, N-(1-(3-methoxyphenyl)-2-(4-methylpiperazin-1-yl)ethyl)-3-(1H-pyrazol-4-yl)-1H-indole-7-carboxamide] |
| 73 |  | 23 |  |  |  | COc1cccc(C(CN2CCN(C)CC2)NC(=O)c2cccc3c(-c4cn[nH]c4)c[nH]c23)c1 (single isomer, unassigned) [Example 138, N-(1-(3-methoxyphenyl)-2-(4-methylpiperazin-1-yl)ethyl)-3-(1H-pyrazol-4-yl)-1H-indole-7-carboxamide] |
| 5.5 |  | 3.1 |  |  |  | COc1cccc(C(CN)NC(=O)c2cccc3c(-c4cn[nH]c4)c[nH]c23)c1 (single isomer, unassigned) [Example 139, N-(2-amino-1-(3-methoxyphenyl)ethyl)-3-(1H-pyrazol-4-yl)-1H-indole-7-carboxamide] |
| 331 |  | 163 |  |  |  | COc1cccc(C(NC(=O)c2cccc3c(-c4cn[nH]c4)c[nH]c23)C2CCN(C)CC2)c1 (single isomer, unassigned) [Example 141, N-((3-methoxyphenyl) (1-methylpiperidin-4-yl)methyl)-3-(1H-pyrazol-4-yl)-1H-indole-7-carboxamide] |
| 113 |  | 37 |  |  |  | COc1cccc(C(NC(=O)c2cccc3c(-c4cn[nH]c4)c[nH]c23)C2CCN(C)CC2)c1 (single isomer, unassigned) [Example 142, N-((3-methoxyphenyl) (1-methylpiperidin-4-yl)methyl)-3-(1H-pyrazol-4-yl)-1H-indole-7-carboxamide] |
| 60 |  | 32 |  |  |  | COc1ccc(C(CN)NC(=O)c2cccc3c(-c4cn[nH]c4)c[nH]c23)cc1 (single isomer, unassigned) [Example 144, N-(2-amino-1-(4-methoxyphenyl)ethyl)-3-(1H-pyrazol-4-yl)-1H-indole-7-carboxamide] |
| 46 |  | 20 |  |  |  | COc1ccc(C(CN)NC(=O)c2cccc3c(-c4cn[nH]c4)c[nH]c23)cc1 (single isomer, unassigned) [Example 145, N-(2-amino-1-(4-methoxyphenyl)ethyl)-3-(1H-pyrazol-4-yl)-1H-indole-7-carboxamide] |
| 0.24 | 15 |  | 2.2 |  |  | N[C@H](C(=O)Nc1cccc2c(-c3cn[nH]c3)c[nH]c12)c1ccccc1 [Example 9, (2S)-2-amino-2-phenyl-N-[3-(1H-pyrazol-4-yl)-1H-indol-7-yl]acetamide] |
| 0.33 |  | 0.18 |  |  |  | CN1CCN(C[C@@H](C(=O)Nc2cccc3c(-c4cn[nH]c4)c[nH]c23)c2ccccc2)CC1 [Example 40] |
| 5.4 |  | 3.5 |  |  |  | COc1cccc([C@H](N)C(=O)Nc2cccc3c(-c4cn[nH]c4)c[nH]c23)c1 [Example 41, (2S)-2-amino-2-(3-methoxyphenyl)-N-[3-(1H-pyrazol-4-yl)-1H-indol-7-yl]acetamide] |
| 5.8 |  | 4.1 |  |  |  | NC[C@@H](Cc1ccccc1)C(=O)Nc1cccc2c(-c3cn[nH]c3)c[nH]c12 [Example 53, (2R)-3-amino-2-benzyl-N-[3-(1H-pyrazol-4-yl)-1H-indol-7-yl]propanamide] |
| 0.18 |  | 0.09 |  |  |  | NC[C@H](Cc1ccccc1)C(=O)Nc1cccc2c(-c3cn[nH]c3)c[nH]c12 [Example 54, (2S)-3-amino-2-benzyl-N-[3-(1H-pyrazol-4-yl)-1H-indol-7-yl]propanamide] |
| 15 |  | 11 |  |  |  | N[C@@H](Cc1c[nH]c2ccccc12)C(=O)Nc1cccc2c(-c3cn[nH]c3)c[nH]c12 [Example 109, (2S)-2-amino-3-(1H-indol-3-yl)-N-[3-(1H-pyrazol-4-yl)-1H-indol-7-yl]propanamide] |
| 4.5 | 1.3 | 1.2 | 26 |  |  | NC[C@@H](NC(=O)c1cccc2c(-c3cn[nH]c3)n[nH]c12)c1ccccc1 [Example 135, N-[(1S)-2-amino-1-phenyl-ethyl]-3-(1H-pyrazol-4-yl)-1H-indazole-7-carboxamide] |
| 21 |  | 5.7 |  |  |  | NC[C@@H](NC(=O)c1cncc2c(-c3cn[nH]c3)c[nH]c12)c1ccccc1 [Example 148, N-[(1S)-2-amino-1-phenyl-ethyl]-3-(1H-pyrazol-4-yl)-1H-pyrrolo[3,2-c]pyridine-7-carboxamide] |
|  | 8.3 |  |  |  |  | COc1cccc(C(CN)C(=O)Nc2ncnc3c(-c4cn[nH]c4)c[nH]c23)c1 (stereo not shown) [Example 154, N-(7-(1H-pyrazol-4-yl)-5H-pyrrolo[3,2-d]pyrimidin-4-yl)-3-amino-2-(3-methoxyphenyl)propanamide] |
|  |  |  |  | 22 | 14 | NC[C@@H](C(=O)Nc1ccc2cnccc2c1)c1ccc(CO)cc1 [Netasudil-M1] |
